# According to patent US8563731B2, “Mesylate salt of 5-(2-{[6-(2,2-difluoro-2-phenylethoxy)hexyl]jamino}-1-hydroxyethyl)-8-hydroxyquinolin-2(1H)-one as agonist of the β2 adrenergic receptor” (Almirall, S.A., priority 2008, dated 2013):
# Structures can show the parent of a compound that is named as a salt.
# Experiment: Stability Test under accelerated condition (solid in amber glass vials, impurities by HPLC)
# Type: physicochemical
# Method: Stability of the mesylate salt of the present invention was evaluated under accelerated condition. About 5 mg of the mesylate salt of the present invention were introduced in individual 10 ml amber glass vials. These vials were stored at 40° C. during 30 days and at 80° C. during 15 and 30 days, respectively. After the forced stress conditions, samples were dissolved in 5 ml of the appropriate solvent. Impurities increase was determined using HPLC analysis and by calculating the relative areas.
structure (smiles),measurement,setting,value
"O=c1ccc2c([C@@H](O)CNCCCCCCOCC(F)(F)c3ccccc3)ccc(O)c2[nH]1 [5-(2-{[6-(2,2-difluoro-2-phenylethoxy)hexyl]amino}-1(R)-hydroxy-ethyl)-8-hydroxyquinolin-2(1H)-one mesylate]",HPLC Impurities (% area),Stability @ 40° C. 30 days,2.4%
same,HPLC Impurities (% area),Stability @ 80° C. 15 days,3.10%
same,HPLC Impurities (% area),Stability @ 80° C. 30 days,3.8%
same,percentage of impurities observed,"all forced conditions (40° C. 30 days, 80° C. 15 and 30 days)",less than 5%
